According to article PMC3940079 (International Journal for Parasitology: Drugs and Drug …, 2013):

Columns and labels:
[1] = biological target: T1, P2 aminopurine transporter (TbAT1) (Trypanosoma brucei, UniProt Q9Y0I0); assay: inhibition of […] [3H]-adenosine uptake; format: cell-based
T1 sequence (Q9Y0I0 1-463): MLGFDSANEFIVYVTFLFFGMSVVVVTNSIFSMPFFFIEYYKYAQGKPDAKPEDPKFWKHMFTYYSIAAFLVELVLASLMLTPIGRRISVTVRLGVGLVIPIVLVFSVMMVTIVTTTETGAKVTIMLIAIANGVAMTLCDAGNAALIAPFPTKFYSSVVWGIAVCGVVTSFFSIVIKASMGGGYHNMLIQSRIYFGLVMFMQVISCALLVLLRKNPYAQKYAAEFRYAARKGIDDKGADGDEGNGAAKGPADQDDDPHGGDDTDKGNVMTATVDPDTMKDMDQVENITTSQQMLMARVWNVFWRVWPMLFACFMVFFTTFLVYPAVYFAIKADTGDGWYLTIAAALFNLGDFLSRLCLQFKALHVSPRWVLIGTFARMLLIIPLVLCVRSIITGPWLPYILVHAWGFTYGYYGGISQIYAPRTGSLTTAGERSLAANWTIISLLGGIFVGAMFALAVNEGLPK

[2] = biological target: H3 nucleobase transporter; assay: inhibition of […] [3H]-hypoxanthine uptake in bloodstream-form trypanosomes; format: cell-based, Trypanosoma brucei brucei
[3] = biological target: H2 nucleobase transporter; assay: as above; format: cell-based, Trypanosoma brucei brucei

- Ki [1]: 75.3 ± 5.7 µM
- Ki [2]: 105 ± 24 µM
- Ki [3]: 230 ± 35 µM
SMILES: Nc1ncnc2n[nH]cc12 [aminopurinol]
